From patent US20100221823A1, “METHOD FOR CULTURING MAMMALIAN CELLS TO IMPROVE RECOMBINANT PROTEIN PRODUCTION” (Amgen Inc., priority 2007, published 2010)

Columns and labels:
[1] = tested on: CHO cell line producing a recombinant IgG2 monoclonal antibody; test: Batch culture in serum-free DMEM/F12 with supplemental polyamines: viable cell density and viability; type: cell-based, Chinese hamster; conditions: 3 days; for Culture viability versus cells without supplemental polyamines (FIG. 1b) / Viable cell density versus basal DMEM/F12 media (FIG. 1a): supplemental polyamine
Procedure: To test the effect of high concentration polyamine media formulations on cell culture performance a CHO cell line producing a recombinant IgG2 monoclonal antibody was seeded at 2.5×10^5 cells/ml in serum-free DMEM/F12 (SAFC, Lenexa, Kans.). DMEM/F12 contains 503 nM putrescine as a component of the commercial formulation. […] Cells were maintained in suspension culture for three days at 36° C. in 5% CO2. Total cell density and viable cell density were measured using a Guava Easy-Cyte™ flow cytometer and Guava Viacount® Flex reagent (Hayward, Calif.) according to manufacture's instructions.
Following three days culture in the polyamine-supplemented-DMEM/F12 media, viable cell density and culture viability were measured, see FIGS. 1a and 1b. Mean viability is presented as percent of viable cells and viable cell density is presented as number of cells/ml.

[2] = tested on: CHO cell line producing a recombinant IgG2 monoclonal antibody; conditions: 6 days, VM-Soy
Procedure: VM-Soy basal media contains 0.98 μM (0.1620 mg/l) putrescine as a component of its formulation. […] Cells were seeded at 2.5×10^5 cells/ml and maintained for six days at 36° C. in 5% CO2. Viable cell density and cell viability were measured as described above.
Antibody titer was measured by immunoturbidietric analysis using a Poly-Chem® analyzer and High Sensitivity IgG reagents (Polymedco, Cortlandt Manor, N.Y.) according to the manufacturer's instructions.

[3] = tested on: four different recombinant monoclonal IgG2 antibody-producing CHO cell lines; conditions: fed-batch, 10 μM spermine
Procedure: The medium was an enriched formulation of DMEM/F12 medium (ingredients supplied by SAFC, Lenexa, Kans.). The medium contained putrescine at a concentration of 0.014 mM. […] Cells were maintained in suspension culture for 11 days at 36° C., 5% CO2. Cultures were fed an enriched feed medium on the fourth, seventh, and ninth days of culture. The feed volume was equal to nine percent of the initial batch culture volume. […] Glucose was also fed on the fourth, seventh, and ninth days of culture in order to prevent depletion. Viable cell density and cell viability were measured as described above.
The titer of the antibodies produced in cell culture was determined using POROS® (Applied Biosystems) Protein A chromotagraphy HPLC chromotagraphy.

[4] = tested on: CHO cell line producing a recombinant IgG1 monoclonal antibody; conditions: fed-batch
Procedure: The medium was an enriched formulation of DMEM/F12 that was less concentrated than the media used in Example 3. The medium already contained putrescine at 0.014 mM. […] Cells were maintained in suspension culture for 8 days at 36° C., 5% CO2. Cultures were fed a rich medium on the fourth day of culture. […] The feed volume was equal to seven percent of the initial batch culture volume. The feed medium contained putrescine and delivered 0.0019 mM putrescine to the cultures as a result of each feed. Glucose was also fed on the fourth day of culture in order to prevent depletion. Viable cell density and cell viability were measured as described above.
Antibody titer was measured by immunoturbidimetric analysis using a Poly-Chem® analyzer and High Sensitivity IgG reagents (Polymedco, Cortlandt Manor, N.Y.) according to the manufacturer's instructions.

[5] = tested on: Human-human hybridoma HB4C5 cells; conditions: spermine 2.4 mM or higher; increased over the control; cited from earlier work

For `Cl.Cl.NCCCCN` [putrescine, putrescine dihydrochloride], the “Culture viability versus cells without supplemental polyamines (FIG. 1b)” value [1] was “higher” and the “Viable cell density versus basal DMEM/F12 media (FIG. 1a)” value [1] was “higher”.

For `NCCCCNCCCN` [spermidine, spermidine tetrachdrochloride], the “Culture viability versus cells without supplemental polyamines (FIG. 1b)” value [1] was “higher” and the “Viable cell density versus basal DMEM/F12 media (FIG. 1a)” value [1] was “higher”.

With `Cl.Cl.Cl.Cl.NCCCNCCCCNCCCN` [spermine, spermine tetrahydrochloride] the “Spermine concentration giving the greatest increase in cell viability (FIG. 1b)” value ([1]; DMEM/F12) was 50 µM, the “Cell viability increase compared to unsupplemented control media” value ([1]; DMEM/F12, 10-50 μM spermine) was “up to 20%” and the “Viable cell density increase compared to unsupplemented control media” value ([1]; DMEM/F12, 10-50 μM spermine) was “up to 49%”. The “Culture viability versus cells without supplemental polyamines (FIG. 1b)” value [1] was “higher”, the “Viable cell density versus basal DMEM/F12 media (FIG. 1a)” value [1] was “higher” and the “Spermine concentration giving the greatest increase in antibody concentration (FIG. 2c)” value [2] was 50 µM. The “Spermine concentration giving the greatest increase in viable cell density (FIG. 2a)” value [2] was 50 µM, the “Antibody titer increase (greatest)” value ([2]; 50 μM spermine) was 9% and the “Cell viability increase (greatest)” value ([2]; 50 μM spermine) was 29%. For the same compound, the “Viable cell density increase (greatest)” value ([2]; 50 μM spermine) was 23%, the “Antibody titer increase compared to the untreated control” value ([2]; 10-200 μM spermine) was 5-9% and the “Cell viability increase compared to the unsupplemented control” value ([2]; 10-200 μM spermine) was 22-29%. The “Viable cell density increase compared to the unsupplemented control” value ([2]; 10-200 μM spermine) was 8-23%, the “Antibody titer increase compared to the untreated controls (FIG. 3c)” value ([3]; range over four cell lines) was 7-17% and the “Cell viability versus control without spermine (FIG. 3b)” value ([3]; 11 days) was “largely unaffected”. For the same compound, the “Viable cell density versus control without spermine (FIG. 3a)” value ([3]; 11 days) was “greater”, the “Effect of spermine concentration on titer” value ([4]; 0.1-500 μM spermine) was “dose-dependent response” and the “Viable cell density versus control (FIGS. 4a and 4b)” value ([4]; 8 days, 0.1-500 μM spermine) was “greater”. The “Antibody titer increase compared to the untreated controls (FIG. 4d)” value ([4]; Day 8, 0.1-500 μM spermine) was 7-17%, the “Ending cell viability (FIG. 4c)” value ([4]; Day 8, 5-50 μM spermine) was “increased” and the Protein production [5] was “less than 1 mg/l”.
